From article PMC11478334, “Quaternized Curcumin Derivative—Synthesis, Physicochemical Characteristics, and Photocytotoxicity, Including Antibacterial Activity after Irradiation with Blue Light” (Molecules, 2024)
Where “and” joins values, the source holds several entries; their conditions need not be identical. Equal entries are not always repeated. Where two headings read alike, the source gives them in different places.

Columns and labels:
[1] = tested on: Streptococcus pyogenes ATCC 19615; assay: In vitro photodynamic inactivation of planktonic cells, 470 nm LED; format: cell-based; conditions: for irradiation time to complete eradication: 470 nm LED
Excerpt: (§1) The second experiment was designed to determine the time and concentration required to achieve the biological effect observed in the first experiment and to extend the study to other strains (Figure 12). Apart from S. aureus and E. coli, the Gram-positive Streptococcus pyogenes ATCC 19615, which is the etiologic agent of tonsillitis, and the Gram-negative Pseudomonas aeruginosa NCTC 6749, which is a major threat to hospitalized and immunocompromised patients due to its high antibiotic resistance, were used. The observed effect was strictly concentration-dependent (Table 6). According to the results, Gram-positive bacteria appear to be the most susceptible to the applied photocytotoxicity study. […] For S. pyogenes, the results were even more pronounced, as the complete eradication under the influence of compound 3 at a concentration of 10 µM occurred after only 5 min of irradiation, while at a concentration of 1 µM, complete eradication occurred after 15 min of irradiation. Interesting results were also obtained for Gram-negative bacteria. […] A high level of eradication of P. aeruginosa in the presence of compound 3 (10 µM) was observed after only 5 min of irradiation (log reduction: 4.29). […] Reductions in microbial survival were still observed with a decrease in compound concentration, but complete eradication was not achieved within the irradiation time.
(§2) The microorganisms used in the study were (i) standard strains of bacteria: Staphylococcus aureus NCTC 4163, Escherichia coli ATCC 25922, Pseudomonas aeruginosa NCTC 6749, and Streptococcus […] ATCC 19615, and (ii) fungi: Candida albicans ATCC 10231. The standard strains were obtained from the National Collection of Type Cultures (NCTC, Salisbury, UK) and the American Type Culture Collection (ATCC, Manassas, VA, USA). Bacterial and yeast strains were stored in Microbank cryogenic vials (Pro-Lab Diagnostics, Richmond Hill, ON, Canada) at −70 °C ± 10 °C. The bacteria were cultured aerobically in brain–heart infusion (BHI) broth (OXOID, Basingstoke, UK) at 36 °C ± 1 °C for 20 h. C. albicans cultures were grown in Sabouraud dextrose broth (SDB, Merck, Steinheim, Germany) at 36 °C for 20 h.
(§3) The organisms were harvested by centrifugation (3000× g for 15 min) and resuspended in 1.5 mL of 10 mM PBS, pH, 7.0 (Sigma-Aldrich, St. Louis, MO, USA). The cells were then diluted 1/100 in PBS to a final concentration of about 10^7 colony-forming units (CFUs)/mL. Aliquots (100 μL) of a standardized microbial suspension were placed in the wells of microtiter plates, and an equal volume of a solution of the tested compound was added to give final concentrations of 1 × 10^−5 (10 µM) and 1 × 10^−6 M (1 µM) (groups P+). Negative control wells contained the bacterial or yeast suspension and PBS without the photosensitizer (groups P−). All the samples were incubated in the dark for 20 min and irradiated by the LED panel at a distance of 10 mm for a specific period, depending on the experiment (groups L+). To evaluate the antimicrobial activity of the tested compounds, duplicate experimental samples were prepared but not irradiated (groups L−). Viable microorganisms were measured by counting the number of colony-forming units (CFUs) after appropriate serial dilution and culture on tryptic soy agar plates (TSA, OXOID, Basingstoke, UK) or Columbia Blood Agar with Sheep Blood (CAS, OXOID, Basingstoke, UK) for bacteria and Sabouraud dextrose agar (SDA, Merck, Steinheim, Germany) for fungi, following incubation at 36 °C ± 1 °C for 24–72 h. The number of surviving organisms and the log10 reduction in microbial cells for each sample were calculated using a formula available in the literature.
(§4) Lamp type—LED λmax~470 nm (LIU470A LED Array Light Source; Thorlabs Inc., Bergkirchen, Germany); irradiance—16.67 mW/cm^2 (measured with PM16-130 Power Meter, Thorlabs Inc., Bergkirchen, Germany, and Optel Opole Sp. z o.o., Opole, Poland).

[2] = tested on: Pseudomonas aeruginosa NCTC 6749; assay: as above; format: cell-based
Excerpt: as §1, §2, §3, §4

[3] = tested on: Candida albicans ATCC 10231; assay: as above; format: cell-based; conditions: 10 µM
Description: (§5) In the first experiment, the main goal was to determine whether the tested compounds were antimicrobially active with or without light. Two compounds (2 and 3) were tested in the visible range, and a 470 nm LED lamp was applied (Figure 11). Due to poor solubility and low absorption, curcumin was not included in the tests. A screening study was carried out on three strains: Gram-positive bacteria—Staphylococcus aureus NCTC 4163, Gram-negative bacteria—Escherichia coli ATCC 25922, and the yeast Candida albicans ATCC 10231. In the study, the irradiation lasted 30 min, and the lamp was placed 10 mm above the microtiter plate containing the bacterial suspensions and tested compounds at concentrations of 10 μM. The preincubation time (PIT) lasted 20 min, and the LED lamp emitted visible light (λmax 470 nm) with an irradiance of 16.67 mW/cm^2, which corresponds to a light dose (fluence) of 30.01 J/cm^2 after 30 min of exposure. The light exposure conditions (lamp distance, lamp power, and lamp type) were the same in all subsequent experiments. The light dose depended on the irradiation time. […] Compound 3 presented activity against both G+ (S. aureus) and G− (E. coli) bacteria. The light-induced antimicrobial activity against S. aureus and E.coli exceeded log reductions of 5.54 and 4.46, respectively. At these concentrations, not even a single colony was observed on the plates, as complete eradication occurred.
The microorganisms used in the study were (i) standard strains of bacteria: Staphylococcus aureus NCTC 4163, Escherichia coli ATCC 25922, Pseudomonas aeruginosa NCTC 6749, and Streptococcus […] ATCC 19615, and (ii) fungi: Candida albicans ATCC 10231. The standard strains were obtained from the National Collection of Type Cultures (NCTC, Salisbury, UK) and the American Type Culture Collection (ATCC, Manassas, VA, USA). […]
The organisms were harvested by centrifugation (3000× g for 15 min) and resuspended in 1.5 mL of 10 mM PBS, pH, 7.0 (Sigma-Aldrich, St. Louis, MO, USA). […] Viable microorganisms were measured by counting the number of colony-forming units (CFUs) after appropriate serial dilution and culture on tryptic soy agar plates (TSA, OXOID, Basingstoke, UK) or Columbia Blood Agar with Sheep Blood (CAS, OXOID, Basingstoke, UK) for bacteria and Sabouraud dextrose agar (SDA, Merck, Steinheim, Germany) for fungi, following incubation at 36 °C ± 1 °C for 24–72 h. The number of surviving organisms and the log10 reduction in microbial cells for each sample were calculated using a formula available in the literature.
as §4

[4] = tested on: Escherichia coli ATCC 25922; assay: as above; format: cell-based
Description: as §5, §1, §2
(§6) The organisms were harvested by centrifugation (3000× g for 15 min) and resuspended in 1.5 mL of 10 mM PBS, pH, 7.0 (Sigma-Aldrich, St. Louis, MO, USA). The cells were then diluted 1/100 in PBS to a final concentration of about 10^7 colony-forming units (CFUs)/mL. […]

[5] = tested on: Staphylococcus aureus NCTC 4163; assay: as above; format: cell-based
Description: as §5, §1, §2, §6

MRC-5 fibroblasts = tested on: MRC-5 fibroblasts; set-up: method as in Lazewski et al. 32; conditions: ref Lazewski et al. 32, cited from earlier work
[6] = 1 µM, 10 min irradiation 470 nm
[7] = 1 µM, 15 min irradiation 470 nm
[8] = 10 µM, 5 min irradiation 470 nm (5 J/cm^2)
[9] = 1 µM, 25 min irradiation 470 nm
[10] = 10 µM, 25 min irradiation 470 nm (25 J/cm^2)
[11] = L+P+, 470 nm, 30 min, 30.01 J/cm^2
[12] = 10 µM, 15 min irradiation 470 nm (15 J/cm^2)
[13] = L+P+, 10 µM, 470 nm, 30 min, 30.01 J/cm^2

Compound: C[N+]1(CCOc2ccc(C=CC3=CC(C=Cc4ccc(OCC[N+]5(C)CCOCC5)cc4)=[O+][B-](F)(F)O3)cc2)CCOCC1 [Compound 3]
- Log Red. ([1]; 1 µM, 5 min irradiation 470 nm (5 J/cm^2)): 3.03 log
- irradiation time to complete eradication ([1]; 1 µM): 15 min
- Log Red. [1, 6]: 4.51 log
- Log Red. [1, 7]: >4.93 log
- Log Red. [1, 8]: >4.93 log
- irradiation time to complete eradication ([1]; 10 µM): 5 min
- Log Red. ([2]; 1 µM, 5 min irradiation 470 nm): 0.86 log
- Log Red. [2, 7]: 2.32 log
- Log Red. [2, 9]: 2.83 log
- Log Red. ([2]; 1 µM, 30 min irradiation 470 nm (30 J/cm^2)): 3.32 log
- Log Red. [2, 8]: 4.29 log
- Log Red. ([2]; 10 µM, 15 min irradiation 470 nm): 4.75 log
- Log Red. [2, 10]: >4.85 log
- Log10 reduction [3, 11]: −0.04 log
- Log10 reduction ([3]; L−P+ (no light)): −0.09 log
- Log Red. ([4]; 1 µM, 5 min irradiation 470 nm): 0.83 log
- biological activity after irradiation ([4]; 1 µM, 470 nm LED): no biological activity
- Log Red. [4, 7]: 1.57 log
- Log Red. [4, 9]: 1.82 log
- Log Red. ([4]; 10 µM, 5 min irradiation 470 nm): 1.15 log
- Log Red. [4, 12]: 3.08 log
- Log Red. [4, 10]: 4.53 log
- Log10 reduction [4, 13]: >4.46 log
- Log10 reduction ([4]; L−P+ (no light), 10 µM): 0.58 log
- Log Red. ([5]; 1 µM, 5 min irradiation 470 nm): −0.01 log
- Log Red. [5, 6]: 0.77 log
- Log Red. [5, 7]: 1.01 log
- Log Red. ([5]; 1 µM, 20 min irradiation 470 nm): 1.42 log
- Log Red. [5, 8]: 3.37 log
- irradiation time to complete eradication ([5]; 10 µM, 470 nm LED): 15 min
- Log Red. ([5]; 10 µM, 10 min irradiation 470 nm): 4.09 log
- Log Red. [5, 12]: >5.40 log and >5.4 log
- Log10 reduction [5, 13]: >5.54 log
- Log10 reduction ([5]; L−P+ (no light), 10 µM): −0.01 log

Compound: Curcumin [reference compound]
- IC50 (MRC-5 fibroblasts; after 24 h): 70.4 ± 12.5 µM
- IC50 (MRC-5 fibroblasts; after 48 h): 45.3 ± 3.18 µM

Compound: F[B-]1(F)OC(/C=C/c2ccc(OCCN3CCOCC3)cc2)=CC(/C=C/c2ccc(OCCN3CCOCC3)cc2)=[O+]1 [Compound 2]
- Log10 reduction [3, 11]: 0.01 log
- Log10 reduction ([3]; L−P+ (no light)): 0.04 log
- Log10 reduction ([4]; L−P+ (no light), 10 µM): 0.52 log
- Log10 reduction [5, 13]: 2.13 log
- Log10 reduction ([5]; L−P+ (no light), 10 µM): 0.05 log
